{
  "source": "patent US11110060B2",
  "about": "“Compositions and methods for delivering pharmaceutical agents” (Arizona Board of Regents on Behalf of the University of …, priority 2017, dated 2021)",
  "key": {"[1]": {"tested_on": "human buccal cell line (T146)", "experiment": "In vitro viability of human buccal cell line (T146), dose-response for safety/toxicity", "format": "cell-based", "conditions": "dose-response of sodium suramin, FIG. 8", "source_text": "FIG. 8: In vitro viability of human buccal cell line (T146): dose-response of sodium suramin for safety/toxicity.\nSuramin alone is amorphous or liquid-crystalline (FIGS. 5-7) and is safe in a human cell line (FIG. 8)."}, "[2]": {"tested_on": "chronic wounds in diabetic and healthy mice", "experiment": "Wound healing in chronic wounds in diabetic (ob/ob) and healthy mice", "format": "in vivo", "method": "FIG. 25: suramin treatment results in increased granulation tissue and wound contraction. A) control. B) 0.15 μg surmain-treated; C) 1.5 μg surmain-treated; and d) 15 μg surmain-treated."}, "[3]": {"conditions": "mice, 0.15, 1.5 and 15 μg suramin-treated vs control, FIG. 25"}},
  "data": [
    {"smiles": "Cc1ccc(C(=O)Nc2ccc(S(=O)(=O)O)c3cc(S(=O)(=O)O)cc(S(=O)(=O)O)c23)cc1NC(=O)c1cccc(NC(=O)Nc2cccc(C(=O)Nc3cc(C(=O)Nc4ccc(S(=O)(=O)O)c5cc(S(=O)(=O)O)cc(S(=O)(=O)O)c45)ccc3C)c2)c1", "note": "[suramin]", "values": [
      {"measurement": "safety in a human cell line (in vitro viability)", "setting": "[1]", "result": "safe"},
      {"measurement": "granulation tissue", "setting": "[2]; [3]", "result": "increased"},
      {"measurement": "wound contraction", "setting": "[2]; [3]", "result": "increased"},
      {"measurement": "wound healing relative to controls", "setting": "[2]; ob/ob mice, suramin treatment at different concentrations, FIG. 24", "result": "accelerated wound healing"}
    ]}
  ]
}
